These results are taken from article PMC5218480 (PLoS ONE, 2017).

This test has as its system MV-4-11 cells. Put plainly: Gene expression microarray analysis (Affymetrix PrimeView) and GSEA. Type of test: cell-based, human. More on the design: RFU PODN (11730768_x_at) / Fold change /veh PODN (11730768_x_at) / RFU LINC00158 (11744669_a_at) / Fold change /veh LINC00158 (11744669_a_at) / RFU DUSP10 (11751237_a_at) / Fold change /veh DUSP10 (11751237_a_at) / RFU ID3 (11757404_x_at) / Fold change /veh ID3 (11757404_x_at) / RFU PLEKHG5 (11737974_s_at) / Fold change /veh PLEKHG5 (11737974_s_at) / RFU LRRC4B (11730491_at) / Fold change /veh LRRC4B (11730491_at) / RFU GIMAP4 (11747438_a_at) / Fold change /veh GIMAP4 (11747438_a_at) / RFU KRT8 (11758183_x_at) / Fold change /veh KRT8 (11758183_x_at) / RFU CNN1 (11734310_a_at) / Fold change /veh CNN1 (11734310_a_at) / RFU VPS37D (11726825_at) / Fold change /veh VPS37D (11726825_at) / RFU C10orf10 (11716522_x_at) / Fold change /veh C10orf10 (11716522_x_at) / RFU KIR2DL2 /// KIR2DL4 /// KIR2DL5A /// KIR2DL5B /// KIR2DS1 /// KIR2DS2 /// KIR2DS3 /// KIR2DS4 /// KIR3DL3 /// KIR3DL3 /// KIR3DS1 (11738374_at) / Fold change /veh KIR2DL2 /// KIR2DL4 /// KIR2DL5A /// KIR2DL5B /// KIR2DS1 /// KIR2DS2 /// KIR2DS3 /// KIR2DS4 /// KIR3DL3 /// KIR3DL3 /// KIR3DS1 (11738374_at) / RFU C1QL1 (11718748_at) / Fold change /veh C1QL1 (11718748_at) / RFU TMPRSS4 (11747572_a_at) / Fold change /veh TMPRSS4 (11747572_a_at) / RFU HAMP (11756126_x_at) / Fold change /veh HAMP (11756126_x_at) / RFU RNFT2 (11725882_a_at) / Fold change /veh RNFT2 (11725882_a_at) / RFU NR4A2 (11747474_a_at) / Fold change /veh NR4A2 (11747474_a_at) / RFU ABCC12 (11746883_a_at) / Fold change /veh ABCC12 (11746883_a_at) / RFU TMEM136 (11760407_x_at) / Fold change /veh TMEM136 (11760407_x_at) / RFU CLDN22 /// WWC2 (11732394_at) / Fold change /veh CLDN22 /// WWC2 (11732394_at) / RFU HLA-DPB1 (11760878_x_at) / Fold change /veh HLA-DPB1 (11760878_x_at) / RFU SPINT1 (11716480_a_at) / Fold change /veh SPINT1 (11716480_a_at) / RFU GAP43 (11754022_s_at) / Fold change /veh GAP43 (11754022_s_at) / RFU A4GNT (11735810_at) / Fold change /veh A4GNT (11735810_at) / RFU PRB3 (11715151_x_at) / Fold change /veh PRB3 (11715151_x_at) / RFU TUBB4B (11761932_at) / Fold change /veh TUBB4B (11761932_at) / RFU CAPN14 (11732068_a_at) / Fold change /veh CAPN14 (11732068_a_at) / RFU TMCC2 (11721928_a_at) / Fold change /veh TMCC2 (11721928_a_at) / RFU IRGQ (11745062_a_at) / Fold change /veh IRGQ (11745062_a_at) / RFU FAM174B (11720279_a_at) / Fold change /veh FAM174B (11720279_a_at) / RFU TMPRSS4 (11748680_a_at) / Fold change /veh TMPRSS4 (11748680_a_at) / RFU FAM212B (11763350_a_at) / Fold change /veh FAM212B (11763350_a_at) / RFU PLEKHG5 (11743358_a_at) / Fold change /veh PLEKHG5 (11743358_a_at) / RFU ZSCAN30 (11745921_a_at) / Fold change /veh ZSCAN30 (11745921_a_at) / RFU CMKLR1 (11741424_a_at) / Fold change /veh CMKLR1 (11741424_a_at) / RFU LOC101060620 /// MAPK8IP1 (11723275_at) / Fold change /veh LOC101060620 /// MAPK8IP1 (11723275_at) / RFU SPTSSB (11747773_x_at) / Fold change /veh SPTSSB (11747773_x_at) / RFU PRSS12 (11739890_at) / Fold change /veh PRSS12 (11739890_at) / RFU BIN1 (11741810_x_at) / Fold change /veh BIN1 (11741810_x_at) / RFU WNT11 (11732464_a_at) / Fold change /veh WNT11 (11732464_a_at) / RFU C10orf10 (11716521_a_at) / Fold change /veh C10orf10 (11716521_a_at) / RFU C5orf56 (11738089_at) / Fold change /veh C5orf56 (11738089_at) / RFU CYB561 (11721691_x_at) / Fold change /veh CYB561 (11721691_x_at) / RFU ANKRD19P (11752326_a_at) / Fold change /veh ANKRD19P (11752326_a_at) / RFU OR2T12 /// OR2T33 /// OR2T8 (11738714_s_at) / Fold change /veh OR2T12 /// OR2T33 /// OR2T8 (11738714_s_at) / RFU VCAN (11748164_a_at) / Fold change /veh VCAN (11748164_a_at) / RFU JSRP1 (11732532_at) / Fold change /veh JSRP1 (11732532_at) / RFU KRTAP10-11 (11738290_x_at) / Fold change /veh KRTAP10-11 (11738290_x_at) / RFU MYO3A (11730013_a_at) / Fold change /veh MYO3A (11730013_a_at) / RFU EBF3 (11725865_a_at) / Fold change /veh EBF3 (11725865_a_at) / RFU CAMK2N1 (11719241_x_at) / Fold change /veh CAMK2N1 (11719241_x_at) / RFU C5orf56 (11738088_a_at) / Fold change /veh C5orf56 (11738088_a_at) / RFU OLFML3 (11715873_a_at) / Fold change /veh OLFML3 (11715873_a_at) / RFU LOC100653217 /// NTM (11731650_a_at) / Fold change /veh LOC100653217 /// NTM (11731650_a_at) / RFU MAPK11 (11762145_a_at) / Fold change /veh MAPK11 (11762145_a_at) / RFU FIZ1 (11724087_x_at) / Fold change /veh FIZ1 (11724087_x_at) / RFU OASL (11726364_x_at) / Fold change /veh OASL (11726364_x_at) / RFU SOX15 (11748057_x_at) / Fold change /veh SOX15 (11748057_x_at) / RFU CD79A (11719716_a_at) / Fold change /veh CD79A (11719716_a_at) / RFU HIST1H1D (11736915_at) / Fold change /veh HIST1H1D (11736915_at) / RFU CASKIN2 (11723855_a_at) / Fold change /veh CASKIN2 (11723855_a_at) / RFU LOC730098 (11760151_x_at) / Fold change /veh LOC730098 (11760151_x_at) / RFU OR4N2 (11742367_at) / Fold change /veh OR4N2 (11742367_at) / RFU PRRT2 (11749266_a_at) / Fold change /veh PRRT2 (11749266_a_at) / RFU SNX32 (11753110_a_at) / Fold change /veh SNX32 (11753110_a_at) / RFU CDHR5 (11726645_a_at) / Fold change /veh CDHR5 (11726645_a_at) / RFU RCAN1 (11760418_a_at) / Fold change /veh RCAN1 (11760418_a_at) / RFU FAM167A (11723789_a_at) / Fold change /veh FAM167A (11723789_a_at) / RFU FAM26E (11764081_at) / Fold change /veh FAM26E (11764081_at) / RFU ISYNA1 (11749810_s_at) / Fold change /veh ISYNA1 (11749810_s_at) / RFU ACY1 (11761880_at) / Fold change /veh ACY1 (11761880_at) / RFU 11764098_at / Fold change /veh 11764098_at / RFU SAMD14 (11745864_x_at) / Fold change /veh SAMD14 (11745864_x_at) / RFU NPB (11741838_a_at) / Fold change /veh NPB (11741838_a_at) / RFU TMPRSS6 (11731388_a_at) / Fold change /veh TMPRSS6 (11731388_a_at) / RFU KRTAP10-2 (11738614_at) / Fold change /veh KRTAP10-2 (11738614_at) / RFU ARHGAP8 /// PRR5-ARHGAP8 (11727945_x_at) / Fold change /veh ARHGAP8 /// PRR5-ARHGAP8 (11727945_x_at) / RFU KRTAP5-7 /// NADSYN1 (11734609_at) / Fold change /veh KRTAP5-7 /// NADSYN1 (11734609_at) / RFU RASL12 (11751679_a_at) / Fold change /veh RASL12 (11751679_a_at) / RFU CDKN2B (11736163_a_at) / Fold change /veh CDKN2B (11736163_a_at) / RFU PRF1 (11729649_at) / Fold change /veh PRF1 (11729649_at) / RFU, ZNF638 /// ZNF638-IT1 / Fold change vs veh, ZNF638 /// ZNF638-IT1 / RFU, PANK3 / Fold change vs veh, PANK3 / RFU, SH3YL1 / Fold change vs veh, SH3YL1 / RFU, ZEB2 / Fold change vs veh, ZEB2 / RFU, NRIP1 / Fold change vs veh, NRIP1 / RFU, PTTG1IP / Fold change vs veh, PTTG1IP / RFU, CAPN2 / Fold change vs veh, CAPN2 / RFU, MED14 / Fold change vs veh, MED14 / RFU, SNORA58 / Fold change vs veh, SNORA58 / RFU, C1orf63 / Fold change vs veh, C1orf63 / RFU, LRRFIP1 / Fold change vs veh, LRRFIP1 / RFU, NDUFAF7 / Fold change vs veh, NDUFAF7 / RFU, SLC12A2 / Fold change vs veh, SLC12A2 / RFU, IBTK / Fold change vs veh, IBTK / RFU, ESF1 / Fold change vs veh, ESF1 / Fold change vs veh, TMEM50B / RFU, TAOK1 / Fold change vs veh, TAOK1 / RFU, ACBD3 / Fold change vs veh, ACBD3 / RFU, TMA16 / Fold change vs veh, TMA16 / RFU, RWDD3 / Fold change vs veh, RWDD3 / RFU, BCAT1 / Fold change vs veh, BCAT1 / RFU, EDEM3 / Fold change vs veh, EDEM3 / RFU, TMEM33 / Fold change vs veh, TMEM33 / RFU, WDR75 / Fold change vs veh, WDR75 / RFU, AHCTF1 / Fold change vs veh, AHCTF1 / RFU, TFRC / Fold change vs veh, TFRC / RFU, ZDHHC17 / Fold change vs veh, ZDHHC17 / RFU, NOM1 / Fold change vs veh, NOM1 / RFU, ARL8B / Fold change vs veh, ARL8B / RFU, ZBTB11 / Fold change vs veh, ZBTB11 / RFU, TAMM41 / Fold change vs veh, TAMM41 / RFU, KIAA1704 /// LOC100996395 / Fold change vs veh, KIAA1704 /// LOC100996395 / RFU, ING1 / Fold change vs veh, ING1 / RFU, TRMT61B / Fold change vs veh, TRMT61B / RFU, FUBP3 / Fold change vs veh, FUBP3 / RFU, TP53 / Fold change vs veh, TP53 / RFU, TNKS2 / Fold change vs veh, TNKS2 / RFU, ZFP14 / Fold change vs veh, ZFP14 / RFU, ACTR2 / Fold change vs veh, ACTR2 / RFU, PPP3R1 / Fold change vs veh, PPP3R1 / RFU, PIK3R1 / Fold change vs veh, PIK3R1 / RFU, HNRNPA1 / Fold change vs veh, HNRNPA1 / RFU, RNF170 / Fold change vs veh, RNF170 / RFU, ZNF28 / Fold change vs veh, ZNF28 / RFU, RNGTT / Fold change vs veh, RNGTT / RFU, OGT / Fold change vs veh, OGT / RFU, BRD1 / Fold change vs veh, BRD1 / RFU, MARS / Fold change vs veh, MARS / RFU, ZNF655 / Fold change vs veh, ZNF655 / RFU, FAHD1 / Fold change vs veh, FAHD1 / RFU, BDP1 / Fold change vs veh, BDP1 / RFU, LRRCC1 / Fold change vs veh, LRRCC1 / RFU, ARID1A / Fold change vs veh, ARID1A / RFU, ZNF146 / Fold change vs veh, ZNF146 / RFU, ZNF330 / Fold change vs veh, ZNF330 / RFU, GPN3 / Fold change vs veh, GPN3 / RFU, C9orf123 / Fold change vs veh, C9orf123 / RFU, N4BP2L2 / Fold change vs veh, N4BP2L2 / RFU, ARFIP1 / Fold change vs veh, ARFIP1 / RFU, FAM179B / Fold change vs veh, FAM179B / RFU, BCL10 / Fold change vs veh, BCL10 / RFU, UHRF1BP1L / Fold change vs veh, UHRF1BP1L / RFU, BET1 / Fold change vs veh, BET1 / RFU, CNOT2 / Fold change vs veh, CNOT2 / RFU, ZNF268 / Fold change vs veh, ZNF268 / Fold change vs veh, ZNF507 / RFU, DGCR2 / Fold change vs veh, DGCR2 / RFU, WDSUB1 / Fold change vs veh, WDSUB1 / Fold change vs veh, HSP90B1 /// MIR3652 / RFU, ADSS / Fold change vs veh, ADSS / RFU, GK / Fold change vs veh, GK / RFU, ZNF148 / Fold change vs veh, ZNF148 / RFU, TAF9 / Fold change vs veh, TAF9 / RFU, SLC1A5 / Fold change vs veh, SLC1A5 / RFU, SLMO2 / Fold change vs veh, SLMO2 / RFU, ABCC4 / Fold change vs veh, ABCC4 / RFU, LOC101060439 /// RAP1B / Fold change vs veh, LOC101060439 /// RAP1B / RFU, RFX7 / Fold change vs veh, RFX7 / RFU, GTPBP10 / Fold change vs veh, GTPBP10 / RFU, CNEP1R1 / Fold change vs veh, CNEP1R1 / RFU, BIVM-ERCC5 /// ERCC5 / Fold change vs veh, BIVM-ERCC5 /// ERCC5 / RFU, ILF3 / Fold change vs veh, ILF3 / RFU 11762660_at / Fold change /veh 11762660_at / RFU VCAN (11757783_s_at) / Fold change /veh VCAN (11757783_s_at) / RFU DDX43 (11728927_at) / Fold change /veh DDX43 (11728927_at) / RFU KRT8 (11758188_x_at) / Fold change /veh KRT8 (11758188_x_at) / RFU NKD1 (11759106_at) / Fold change /veh NKD1 (11759106_at) / RFU SRD5A1 (11742802_a_at) / Fold change /veh SRD5A1 (11742802_a_at) / RFU TPSAB1 /// TPSB2 (11721975_s_at) / Fold change /veh TPSAB1 /// TPSB2 (11721975_s_at) / RFU GSTM3 (11746129_a_at) / Fold change /veh GSTM3 (11746129_a_at) / RFU IL23R (11737362_x_at) / Fold change /veh IL23R (11737362_x_at) / RFU TMEM51 (11727254_a_at) / Fold change /veh TMEM51 (11727254_a_at) / RFU PIWIL2 (11732686_x_at) / Fold change /veh PIWIL2 (11732686_x_at) / RFU ORM1 (11744905_x_at) / Fold change /veh ORM1 (11744905_x_at) / RFU CCDC152 (11743942_at) / Fold change /veh CCDC152 (11743942_at) / RFU ECM1 (11717891_a_at) / Fold change /veh ECM1 (11717891_a_at) / RFU IL23R (11748794_a_at) / Fold change /veh IL23R (11748794_a_at) / RFU TNFAIP8L3 (11732012_x_at) / Fold change /veh TNFAIP8L3 (11732012_x_at) / RFU MBOAT4 (11741988_at) / Fold change /veh MBOAT4 (11741988_at) / RFU 11764193_at / Fold change /veh 11764193_at / RFU TMEM53 (11763286_at) / Fold change /veh TMEM53 (11763286_at) / RFU MAGEB2 (11727129_at) / Fold change /veh MAGEB2 (11727129_at) / RFU TMEM200A (11744735_a_at) / Fold change /veh TMEM200A (11744735_a_at) / RFU CCDC152 (11751479_a_at) / Fold change /veh CCDC152 (11751479_a_at) / RFU FAM211A (11726209_a_at) / Fold change /veh FAM211A (11726209_a_at) / RFU RGS16 (11746705_a_at) / Fold change /veh RGS16 (11746705_a_at) / RFU VCAN (11755009_s_at) / Fold change /veh VCAN (11755009_s_at) / RFU RHOB (11743442_s_at) / Fold change /veh RHOB (11743442_s_at) / RFU RGS16 (11720943_a_at) / Fold change /veh RGS16 (11720943_a_at) / RFU RGS16 (11720944_at) / Fold change /veh RGS16 (11720944_at) / RFU, VPS4B / Fold change vs veh, VPS4B / RFU, CREB1 / Fold change vs veh, CREB1 / RFU, DNAJC13 / Fold change vs veh, DNAJC13 / RFU, GNAQ / Fold change vs veh, GNAQ / RFU, CDK5R1 / Fold change vs veh, CDK5R1 / RFU, ZRANB3 / Fold change vs veh, ZRANB3 / RFU, CUL4A / Fold change vs veh, CUL4A / RFU, CCNY / Fold change vs veh, CCNY / RFU, UFL1 / Fold change vs veh, UFL1 / RFU, COG3 / Fold change vs veh, COG3 / RFU, DIAPH2 / Fold change vs veh, DIAPH2 / RFU, SKA2 / Fold change vs veh, SKA2 / RFU, AFF3 / Fold change vs veh, AFF3 / RFU, LMF1 / Fold change vs veh, LMF1 / RFU, IPO11 / Fold change vs veh, IPO11 / RFU, DFFB / Fold change vs veh, DFFB / RFU, FOXP1 / Fold change vs veh, FOXP1 / RFU, CARD8 / Fold change vs veh, CARD8 / RFU, STRN3 / Fold change vs veh, STRN3 / RFU, ADK / Fold change vs veh, ADK / RFU, RASSF2 / Fold change vs veh, RASSF2 / RFU, WIPF1 / Fold change vs veh, WIPF1 / RFU, LARP1B / Fold change vs veh, LARP1B / RFU, RASA1 / Fold change vs veh, RASA1 / RFU, RB1 / Fold change vs veh, RB1 / RFU, PPFIA1 / Fold change vs veh, PPFIA1 / RFU, MAT2A / Fold change vs veh, MAT2A / RFU, CCT5 / Fold change vs veh, CCT5 / RFU, WDR92 / Fold change vs veh, WDR92 / RFU, CUX1 / Fold change vs veh, CUX1 / RFU, TTC7A / Fold change vs veh, TTC7A / RFU, TMEM135 / Fold change vs veh, TMEM135 / RFU, DEPTOR / Fold change vs veh, DEPTOR / RFU, CPM / Fold change vs veh, CPM / RFU, DNAJB6 / Fold change vs veh, DNAJB6 / RFU, CACNA2D3 / Fold change vs veh, CACNA2D3 / RFU, DTX4 / Fold change vs veh, DTX4 / RFU, TFCP2 / Fold change vs veh, TFCP2 / RFU, GMCL1 /// GMCL1P1 / Fold change vs veh, GMCL1 /// GMCL1P1 / RFU, AEBP2 / Fold change vs veh, AEBP2 / RFU, SNHG1 /// SNORD22 /// SNORD25 /// SNORD26 /// SNORD27 /// SNORD28 /// SNORD29 /// SNORD31 / Fold change vs veh, SNHG1 /// SNORD22 /// SNORD25 /// SNORD26 /// SNORD27 /// SNORD28 /// SNORD29 /// SNORD31 / Fold change (Aza/veh), C12orf56 (ProbeSet 11735607_a_at) / Fold change (ACY-1035/veh), C12orf56 (ProbeSet 11735607_a_at) / Fold change (Aza/veh), FGFR1OP (ProbeSet 11751329_s_at) / Fold change (ACY-1035/veh), FGFR1OP (ProbeSet 11751329_s_at) / Fold change (Aza/veh), VPS36 (ProbeSet 11739960_a_at) / Fold change (ACY-1035/veh), VPS36 (ProbeSet 11739960_a_at) / RFU SYPL1 (11715823_x_at) / Fold change /veh SYPL1 (11715823_x_at) / RFU IGFBP7 (11715501_s_at) / Fold change /veh IGFBP7 (11715501_s_at) / RFU REEP3 (11722064_at) / Fold change /veh REEP3 (11722064_at) / RFU IGLL1 (11728026_x_at) / Fold change /veh IGLL1 (11728026_x_at): dose or concentration left out as unconfirmed. Particulars: MV-4-11 cells, 48 hours.

Take `Nc1ncn([C@@H]2O[C@H](CO)[C@@H](O)[C@H]2O)c(=O)n1` [azacitidine]: the “Fold change /veh GIMAP4 (11747438_a_at)” value amounted to 1.07.
